# Earlier results, collected in patent US10174015B2, “Substituted heterocyclic derivative, preparation method and use thereof” (Xiamen University, priority 2014, dated 2019).
# Legend:
# NAAA = NAAA inhibitor, literature value; cited from earlier work
# [1] = system: inflammatory pain induced by carrageenan and neuropathic pain caused by sciatic nerve ligation; settings: cited from earlier work
# [2] = system: leukocyte migration and inflammatory exudation; settings: topical administration; cited from earlier work
Structure (SMILES),IC50 (NAAA) [µM],"analgesic effects on allodynia compared with gabapentin ([1]; sciatic nerve ligation, ARN077 1%, 20 μL, epidermal, gabapentin 50 mg/kg oral)",effect on inflammatory and neuropathic pain ([1]; topical administration),effect on leukocyte migration and inflammatory exudation [2]
C[C@@H]1OC(=O)[C@@H]1NC(=O)OCCCCCc1ccccc1 [ARN077],0.127,better analgesic effects on allodynia than the positive control agent gabapentin,significantly inhibit inflammatory pain induced by carrageenan and neuropathic pain caused by sciatic nerve ligation,–
O=C(CCc1ccccc1)N[C@H]1COC1=O [S-OOPP],0.42,–,–,inhibiting leukocyte migration and inflammatory exudation
